# US10525024B2, “Methods for rescuing phenobarbital-resistance of seizures by ANA-12 or ANA-12 in combination with CLP290” (THE JOHNS HOPKINS UNIVERSITY, priority 2014, dated 2020)
# Values joined by “and” are separate entries in the source; they are usually repeats but may differ in a detail not shown here. Identical values can stand only once. Like-named read-outs stand apart in the source and are kept apart here.
# What was measured:
# [1] = adult mouse, 0.5 mg/kg IP, cited from earlier work
# [2] = test system: CD1 pups with unilateral carotid ligation (ischemic seizures); settings: for latency to the 1st-detected seizure: drug given IP immediately after ligation
# [3] = test system: KCC2; test: Western blot of KCC2 expression, ipsilateral normalized to contralateral hemisphere, post-ligation; assay type: in vivo, mouse
# Experimental: Western blot at 3 h and 24 h post-ligation. All animals were anesthetized with chloral hydrate (90 mg/ml; IP) before being transcardially perfused. The whole brains of P7 and P10 pups were harvested at either 3 h or 24 h post-ligation, and were frozen as ipsilateral and contralateral hemisphere. The brains were stored in −80° C. until further use. Homogenized whole brain lysates were suspended in cell lysis buffer with 10% protease/phosphatase inhibitor cocktail. Total protein concentrations were quantified through Bradford Assay (Bio-Rad) at 570 nm wavelength, and the samples were diluted for 50 ug of protein at 20 ul of loading volume for gel electrophoresis.
# Samples were run on 4-20% gradient 1.5 mm 15 wells SDS gels (Invitrogen) for 100-120 min with 130V, and were transferred onto nitrocellulose membranes for overnight wet-transfer for minimum of 18 hours at 30V. After the transfer, the nitrocellulose membranes underwent 1 h blocking step in odyssey buffer, before overnight incubation in primary antibodies: rabbit α-KCC2 (1:1000, Millipore; Cat. No. 07-432); rabbit α-NKCC1 (1:500, Millipore, Cat. No. AB3560P); mouse α-actin (1:10000, LI-COR Biosciences, Cat. No. 926-42214). On the next day, nitrocellulose membranes were washed with TBS containing tween detergent, and then were incubated in […] secondaries for 1 h (1:5000 for both goat α-mouse 680LT and goat α-rabbit 800CW, LI-COR Biosciences). Chemiluminescent protein bands were analyzed using the Odyssey infrared imaging system 2.1 (LI-COR Biosciences). The optical density of each protein sample was normalized to the actin bands run on each lane for internal control. The expression levels of the proteins of interest in ipsilateral hemispheres were normalized to the same in contralateral hemispheres for each pup. The human brain was recently shown to express two splice variants of NKCC1 (a and b) and the NKCC1 probe used in this study and all previous studies referenced here can only detect the NKCC1a isoform because the targeted epitope site of this probe overlaps with exon 21 that is spliced in the dominant isoform NKCC1b. A reliable pan-NKCC1 probe is not currently available.
# A smaller sample of naïve age-matched controls (n=8, 4 each at P8 and P11, equal sexes) was run with the 24 h WB data (brains harvested at P8 and P11, i.e.; 24 h after P7 and P10 ligations). […] This pilot established that contralateral hemispheres were ideal controls for normalization of KCC2 and NKCC1 expression in ipsilateral injured hemispheres for this study similar to previously reported conclusions in another ischemia model.
# [4] = cited from earlier work
# [5] = test system: CD1 mice with permanent unilateral carotid-ligation (acute ischemic seizures); test: Video-EEG seizure burden after carotid ligation at P7, P10, P12 with PB and adjunct BTN (Example 2); assay type: in vivo, mouse; settings: for effect of adjunct BTN on PB-efficacy: BTN 0.1-0.2 mg/kg IP 2 h post-ligation; for reduction of seizure burden: PB 25 mg/kg IP 1 h after ligation
# Experimental: Experimental design. […] All surgery was performed under isoflurane general anesthesia, and all efforts were made to minimize suffering. All litters of CD1 mice were purchased from Charles River Laboratories Inc. (Wilmington, Mass.). Newly born litters of pups arrived at postnatal 3 or 4 days old, and were allowed to acclimate. […] Ninety two pups from 12 litters were included in the video-EEG study (n=48 male and n=44 female). The susceptibility to ischemic seizures was tested at 3 developmental ages i.e., 7, 10 and 12 days old CD1 pups (n=80 ligated and 12 shams). […] The pups underwent permanent ligation and sham surgeries followed by 3 h of EEG recording each, as described in methods (total pups=92 of which ligates P7=29, P10=24 and P12=27 and sham P7=5, P10=4 and P12=3; see Table 2). From the ligated group of pups (total n=80), the ligated-control pups also underwent 3 h EEG recordings to evaluate natural progression of ischemic seizure burden over the duration of treatment efficacy evaluated in this study (total pups n/n=26/80, P7=8, P10=9 and P12=9). […] Since the severity of stroke-injury and seizure varies between pups, the baseline EEG of each pup served as an important internal control. Additionally, since the exact time-point of onset for ischemia in human neonates is not known and may not be a single massive event, the 1 h of non-treatment also served as an important delay expected in the treatment of neonatal seizures that are detected hours after stroke in humans.
# Surgical procedure for ischemic insult and electrode implantation. Animals were anesthetized with 2% isoflurane. The right common carotid artery was permanently double-ligated with 6-0 surgisilk and the outer skin closed with 6-0 monofilament nylon to induce ischemia (i.e.; ischemia was induced by unilateral common carotid ligation alone. Unlike other rat models commonly used for neonatal stroke, no global hypoxia is needed to induce acute ischemic seizures). Since the ligated carotid is not transected in our model, the intact pulsating carotid artery with silk ligatures can lead to reperfusion over time in this model. The constrictive efficacy (which drops cerebral perfusion to 40% or less) of the silk ligatures is known to diminish, due to the loss of their tensile strength in-vivo against the pulsating artery as a function of time. […] The animals were then implanted with three sub-dermal EEG electrodes (1 recording, 1 reference, and 1 ground) on the skull overlying the parietal cortex using bregma as a reference. Scalp wire electrodes made for sub-dermal use in humans (IVES EEG; Model # SWE-L25-MA, USA) were implanted, sub-dermally fixed with adhesive, in the pups. […] In this study, the recording and reference electrodes were implanted less than 1 cm apart. Pups were then allowed to recover from anesthesia in a 36° C. isothermal chamber for 3 h recording of video-EEG (FIG. 12). At the end of the recording session, the pups were returned to the dams after removal of the sub-dermal electrodes and application of local anesthetic medication.
# In vivo synchronous video-EEG recording. […] Data acquisition was done using PAL-8400 software with synchronous video capture (Pinnacle Technology Inc.). […] The files were stored in .EDF format and scored in real time using the review and scoring software package.
# [6] = test system: HIE seizures; settings: neonates, cited from earlier work
# [7] = test system: ischemic seizures; test: CLP290 in the neonatal ischemic seizure model, 3 h EEG (Example 3); settings: 20 mg/kg, n=4, vs vehicle (HPCD)
# Experimental: Arrow heads indicate time of 1 hourly drug injections from start of the 3 h recording.
structure (smiles),measurement,setting,value
"O=C(Nc1ccccc1C(=O)NC1CCCCNC1=O)c1cc2ccccc2s1 (stereo not drawn) [ANA12, N-[2-[[(Hexahydro-2-oxo-1H-azepin-3-yl)amino]carbonyl]phenyl] benzo[b]thiophene-2-carboxamide]",brain concentration,[1]; 0.5 h,400 nM
same,brain concentration,[1]; 6 h,10 nM
same,latency to the 1st-detected seizure,[2]; P7,202.3 ± 38.8 s
same,post-treatment mortality rate vs vehicle (Fisher's exact test),"[2]; P7 p=0.58, P10 p=1.00",did not show a statistical significance
same,anti-seizure effect on EEG seizure burden,[2]; P7 pups,did not have any anti-seizure effect
same,age- and sex-dependent seizure susceptibility to ischemic seizures,"[2]; P7 vs P10, baseline seizure burden",not altered
same,latency to the 1st-detected seizure,[2]; P10,245.8 ± 39.8 s
same,anti-seizure effect on EEG seizure burden,[2]; P10 pups,did not have any anti-seizure effect
same,effect on post-ischemic degradation of KCC2 expression,[3]; 3 h post-ischemia,underwent degradation of KCC2
same,downregulation of KCC2 expression,"[3]; P7, 3 h post-ischemia",15-20%
same,KCC2 degradation compared to the contralateral hemisphere,"[3]; P7, 24 h post-ischemia",15-18%
same,effect on post-ischemic degradation of KCC2 expression,"[3]; P7 and P10, 24 h post-ischemia",failed to prevent the post-ischemic KCC2 degradation
same,KCC2 degradation compared to the contralateral hemisphere,"[3]; P10, 24 h post-ischemia",~12%
"CCCCNc1cc(C(=O)O)cc(S(N)(=O)=O)c1Oc1ccccc1 [BTN, bumetanide]",half-life,[4]; rodents,< 30 min and ~30 min
same,adjunct anti-seizure effect of BTN given 1 h after PB,"[2]; P10, ANA12+PB treated pups, BTN 0.1-0.2 mg/kg IP, 3rd h",significantly blunted PB-efficacy by increasing the seizure burden
same,effect of adjunct BTN on PB-efficacy,[5]; P7,did not improve PB-efficacy
same,anti-seizure effect on total time spent seizing on EEG,"[5]; P7, PB 25 mg/kg at 1 h, BTN 0.1-0.2 mg/kg at 2 h post-ligation",failed to have any significant anti-seizure effect
same,effect of adjunct BTN on PB-efficacy,[5]; P10,PB-induced seizure suppression was lost
same,effect of adjunct BTN on PB-efficacy,[5]; P12,failed to act as an effective adjuvant
same,electrographic seizure scores after follow-on BTN,"[5]; any age (P7, P10, P12)",did not add any significant therapeutic benefit
same,efficacy for HIE seizures,[6]; clinical trial terminated,inefficacy
same,safety finding,[6],ototoxicity
O=C1N=C(N2CCCCN2)S/C1=C\c1ccc(F)cc1OC(=O)N1CCCC1 [CLP290],anti-seizure activity alone,[7],can act independently as an anti-seizure agent
"CCC1(c2ccccc2)C(=O)NC(=O)NC1=O [PB, phenobarbital]",half-life,[4]; immature rodents,~900 min
same,percent PB seizure suppression over baseline,"[2]; P10 pups, ANA12 2.5 mg/kg IP after ligation (or none), PB 25 mg/kg IP at 1 h, 2nd h vs baseline EEG",68%
same,reduction of seizure burden,[5]; P10,61%
same,reduction of seizure burden,[5]; P12,64%
